Format in all cases: cell-based
One experiment has as its target T1, hGIPR (Homo sapiens, UniProt P48546).
T1 construct: expressed in transfected cells
T1 sequence (P48546 22-466): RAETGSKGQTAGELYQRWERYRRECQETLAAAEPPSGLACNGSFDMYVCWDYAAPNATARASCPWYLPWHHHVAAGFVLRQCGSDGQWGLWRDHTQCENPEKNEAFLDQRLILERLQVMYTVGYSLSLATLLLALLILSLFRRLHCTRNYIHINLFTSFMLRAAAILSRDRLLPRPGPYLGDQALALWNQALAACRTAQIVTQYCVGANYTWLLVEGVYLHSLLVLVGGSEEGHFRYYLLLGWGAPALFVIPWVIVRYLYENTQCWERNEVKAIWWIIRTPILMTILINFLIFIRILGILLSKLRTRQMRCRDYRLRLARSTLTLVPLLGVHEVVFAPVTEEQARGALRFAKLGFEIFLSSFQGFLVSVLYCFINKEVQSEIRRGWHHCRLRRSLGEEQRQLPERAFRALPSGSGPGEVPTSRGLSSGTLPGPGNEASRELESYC
As to the kind of experiment: Functional cAMP formation (HTRF) in HEK-293 clonal cells expressing hGIPR, 0.1% bovine casein, without or with 1.0% human serum albumin. The conditions noted are these: for Emax: HEK293, cAMP, percent of maximal response to GIP(1-42)NH2, read-out: hGIPR Emax, % ± SEM; for EC50: cAMP, 0.1% bovine casein (no human serum albumin), geometric mean. The method in brief: (§1)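 Cells were stimulated with peptide for 30 min at 37° C, then lysed in buffer carrying cAMP-d2 and anti-cAMP Eu3+-cryptate for a competitive HTRF read after at least 60 min at room temperature. The 665/620 nm ratio was converted to nM cAMP against a standard curve.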
Background: cAMP levels reflect the balance of adenylyl cyclase and phosphodiesterase activity.

The target in a further experiment is T2, hGCGR (Homo sapiens, UniProt P47871).
T2 construct: expressed in transfected cells
T2 sequence (P47871 26-477): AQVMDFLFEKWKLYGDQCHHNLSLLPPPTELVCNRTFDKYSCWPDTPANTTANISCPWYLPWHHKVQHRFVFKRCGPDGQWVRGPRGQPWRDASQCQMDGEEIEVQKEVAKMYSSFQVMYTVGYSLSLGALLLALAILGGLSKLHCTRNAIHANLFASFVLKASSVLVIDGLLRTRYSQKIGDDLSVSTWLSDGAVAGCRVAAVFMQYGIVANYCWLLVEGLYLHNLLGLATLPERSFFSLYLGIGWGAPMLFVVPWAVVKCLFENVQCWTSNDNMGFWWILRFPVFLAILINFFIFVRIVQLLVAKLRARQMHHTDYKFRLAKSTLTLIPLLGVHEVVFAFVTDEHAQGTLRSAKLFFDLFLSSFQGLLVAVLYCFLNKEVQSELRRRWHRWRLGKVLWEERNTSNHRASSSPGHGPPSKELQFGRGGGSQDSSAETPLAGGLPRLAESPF
Briefly: Functional cAMP formation (HTRF) in HEK-293 clonal cells expressing hGCGR, 0.1% bovine casein, without or with 1.0% human serum albumin. The essentials: as §1

Another experiment deals with hGLP-1R (Homo sapiens, UniProt P43220). Briefly: Functional cAMP formation (HTRF) in HEK-293 clonal cells expressing hGLP-1R, 0.1% bovine casein, without or with 1.0% human serum albumin. Also on record: expressed in transfected cells. The note with it: for EC50: geometric mean. The method in brief: as §1
hGLP-1R, sequence (P43220 24-463): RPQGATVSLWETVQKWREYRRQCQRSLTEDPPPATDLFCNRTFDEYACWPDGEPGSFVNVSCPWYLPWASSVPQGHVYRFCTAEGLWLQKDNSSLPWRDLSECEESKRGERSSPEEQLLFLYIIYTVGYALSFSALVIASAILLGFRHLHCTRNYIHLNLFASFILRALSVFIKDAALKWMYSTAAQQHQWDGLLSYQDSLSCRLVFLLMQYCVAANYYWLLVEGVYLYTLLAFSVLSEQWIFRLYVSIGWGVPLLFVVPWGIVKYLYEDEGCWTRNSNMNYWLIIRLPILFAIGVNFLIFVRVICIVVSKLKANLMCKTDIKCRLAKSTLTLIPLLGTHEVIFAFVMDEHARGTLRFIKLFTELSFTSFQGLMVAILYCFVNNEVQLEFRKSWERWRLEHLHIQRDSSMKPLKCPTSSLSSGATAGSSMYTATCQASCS
[1] abbreviates: 37° C., 0.1% bovine casein and 1.0% human serum albumin.
[2] abbreviates: cAMP, 37° C., 0.1% bovine casein (no human serum albumin), geometric mean, read-out: hGCGR EC50, nM (SEM, n).
Setting [3] is: cAMP, 37° C., 0.1% bovine casein and 1.0% human serum albumin, geometric mean (SEM, n), read-out: hGCGR EC50, nM (SEM, n).
Setting [4] is: cAMP, 37° C., 0.1% bovine casein (no human serum albumin), read-out: hGLP-1R EC50, nM (SEM, n).

Data on 4 compounds can be found in US20230265151A1, “GIP/GLP1 CO-AGONIST COMPOUNDS” (priority 2020, published 2023).

Read-outs that look alike come from different tables or passages of the source.

A word on the Emax: it is the size of the effect at its maximum, as opposed to the concentration needed. A word on the EC50: it is the concentration giving half of the maximal effect. `CCCCCCCCCCCC(=O)N[C@@H](CCC(=O)NCCOCCOCC(=O)NCCOCCOCC(=O)NCCCC[C@H](NC(=O)[C@H](CCCN)NC(=O)[C@H](CC(=O)O)NC(=O)[C@H](CC(C)C)NC(=O)[C@](C)(CC(C)C)NC(=O)[C@@H](NC(=O)C(C)(C)NC(=O)[C@H](Cc1ccncc1)NC(=O)[C@H](CC(=O)O)NC(=O)[C@H](CO)NC(=O)[C@@H](NC(=O)[C@](C)(Cc1ccccc1F)NC(=O)[C@@H](NC(=O)CNC(=O)[C@H](CCC(=O)O)NC(=O)C(C)(C)NC(=O)[C@@H](N)Cc1ccc(O)cc1)[C@@H](C)O)[C@@H](C)O)[C@@H](C)CC)C(=O)N[C@@H](C)C(=O)N[C@@H](CCC(N)=O)C(=O)NC(C)(C)C(=O)N[C@@H](Cc1ccncc1)C(=O)N[C@@H](Cc1ccccc1)C(=O)N[C@H](C(=O)N[C@H](CCC(=O)O)C(=O)N[C@@](C)(Cc1ccc(O)cc1)C(=O)N[C@@H](CC(C)C)C(=O)N[C@H](C(=O)N[C@@H](CCCCNC(=O)COCCOCCNC(=O)COCCOCCNC(=O)CC[C@H](NC(=O)CCCCCCCCCCC)C(=O)O)C(=O)NCC(=O)NCC(=O)N1CCC[C@H]1C(=O)N[C@@H](CO)C(=O)N[C@@H](CO)C(=O)NCC(=O)N[C@@H](C)C(=O)N1CCC[C@H]1C(=O)N1CCC[C@H]1C(=O)N1CCC[C@H]1C(=O)N[C@@H](CO)C(N)=O)[C@@H](C)CC)[C@@H](C)CC)C(=O)O` [Example 416]: the maximum response (Emax) at hGIPR (setting [1]) is 83%; on hGIPR (37° C., 0.1% bovine casein, arithmetic mean) it was 99%; at hGLP-1R (HEK293, cAMP, 37° C., 0.1% bovine casein and 1.0% human serum albumin, percent of maximal response to GLP-1(7-36)NH2, read-out: hGLP-1R Emax, % ± SEM), 109%. Moreover, the EC50 at hGIPR (37° C., read-out: hGIPR EC50, nM (SEM, n)) was 0.0214 nM; on hGCGR (setting [2]), more than 9950 nM; at hGCGR (setting [3]), more than 9950 nM; on hGLP-1R (setting [4]), 0.332 nM.
For the compound `CCCCCCCCCCCC(=O)N[C@@H](CCC(=O)NCCOCCOCC(=O)NCCOCCOCC(=O)NCCCC[C@H](NC(=O)[C@H](CCCN)NC(=O)[C@H](CC(=O)O)NC(=O)[C@H](CC(C)C)NC(=O)[C@](C)(CC(C)C)NC(=O)[C@@H](NC(=O)[C@H](CO)NC(=O)[C@H](CCc1ccc(O)cc1)NC(=O)[C@H](CC(=O)O)NC(=O)[C@H](CO)NC(=O)[C@@H](NC(=O)[C@](C)(Cc1ccccc1F)NC(=O)[C@@H](NC(=O)CNC(=O)[C@H](CCC(=O)O)NC(=O)C(C)(C)NC(=O)[C@@H](N)Cc1ccc(O)cc1)[C@@H](C)O)[C@@H](C)O)[C@@H](C)CC)C(=O)N[C@@H](C)C(=O)N[C@@H](CCC(N)=O)C(=O)NC(C)(C)C(=O)N[C@@H](CCCCNC(=O)COCCOCCNC(=O)COCCOCCNC(=O)CC[C@H](NC(=O)CCCCCCCCCCC)C(=O)O)C(=O)N[C@@H](Cc1ccccc1)C(=O)N[C@H](C(=O)N[C@H](CCC(=O)O)C(=O)N[C@@](C)(Cc1ccc(O)cc1)C(=O)N[C@@H](CC(C)C)C(=O)N[C@H](C(=O)N[C@@H](CCC(=O)O)C(=O)NCC(=O)NCC(=O)N1CCC[C@H]1C(=O)N[C@@H](CO)C(=O)N[C@@H](CO)C(=O)NCC(=O)N[C@@H](C)C(=O)N1CCC[C@H]1C(=O)N1CCC[C@H]1C(=O)N1CCC[C@H]1C(=O)N[C@@H](CO)C(N)=O)[C@@H](C)CC)[C@@H](C)CC)C(=O)O` [Example 323], the Emax on hGIPR (setting [1]) turned out to be 92.9%; on hGLP-1R (HEK293, cAMP, 37° C., 0.1% bovine casein, percent of maximal response to GLP-1(7-36)NH2, arithmetic mean, read-out: hGLP-1R Emax, % ± SEM), 92.6%. The EC50 on hGCGR (setting [2]) was more than 9950 nM; on hGCGR (setting [3]), more than 9950 nM; on hGLP-1R (setting [4]), 0.203 nM.
With `CC[C@H](C)[C@H](NC(=O)[C@H](CCCN)NC(=O)[C@H](CC(=O)O)NC(=O)[C@H](CC(C)C)NC(=O)[C@](C)(CC(C)C)NC(=O)[C@@H](NC(=O)[C@H](CO)NC(=O)[C@H](CCCCNC(=O)COCCOCCNC(=O)COCCOCCNC(=O)CC[C@H](NC(=O)CCCCCCCCCCCCC(=O)O)C(=O)O)NC(=O)[C@H](CC(=O)O)NC(=O)[C@H](CO)NC(=O)[C@@H](NC(=O)[C@](C)(Cc1ccccc1F)NC(=O)[C@@H](NC(=O)CNC(=O)[C@H](CCC(=O)O)NC(=O)C(C)(C)NC(=O)[C@@H](N)Cc1ccc(O)cc1)[C@@H](C)O)[C@@H](C)O)[C@@H](C)CC)C(=O)N[C@@H](C)C(=O)N[C@@H](CCC(N)=O)C(=O)NC(C)(C)C(=O)N[C@@H](CCC(=O)O)C(=O)N[C@@](C)(Cc1ccccc1)C(=O)N[C@H](C(=O)N[C@@H](CCCCNC(=O)COCCOCCNC(=O)COCCOCCNC(=O)CC[C@H](NC(=O)CCCCCCCCCCCCC(=O)O)C(=O)O)C(=O)N[C@@](C)(Cc1ccc(O)cc1)C(=O)N[C@@H](CC(C)C)C(=O)N[C@H](C(=O)N[C@@H](CCC(=O)O)C(=O)NCC(=O)NCC(=O)N1CCC[C@H]1C(=O)N[C@@H](CO)C(=O)N[C@@H](CO)C(=O)NCC(=O)N[C@@H](C)C(=O)N1CCC[C@H]1C(=O)N1CCC[C@H]1C(=O)N1CCC[C@H]1C(=O)N[C@@H](CO)C(N)=O)[C@@H](C)CC)[C@@H](C)CC` [Example 110], the EC50 at hGIPR (hGIPR EC50, nM (SEM, n), incubated at 37° C.) was 0.0417 nM; on hGCGR (hGCGR EC50, nM (SEM, n), cAMP, incubated at 37° C., 0.1% bovine casein (no human serum albumin), geometric mean) it was more than 9950 nM; at hGLP-1R (hGLP-1R EC50, nM (SEM, n), cAMP, incubated at 37° C., 0.1% bovine casein (no human serum albumin)), 1.43 nM. Further, the Emax at hGLP-1R (HEK293, read-out: hGLP-1R Emax, % ± SEM, percent of maximal response to GLP-1(7-36)NH2, 37° C., 0.1% bovine casein, arithmetic mean) stood at 98.8%.
As to `CC[C@H](C)[C@H](NC(=O)[C@H](CCCN)NC(=O)[C@H](CC(=O)O)NC(=O)[C@H](CC(C)C)NC(=O)[C@](C)(CC(C)C)NC(=O)[C@@H](NC(=O)[C@H](CO)NC(=O)[C@H](Cc1ccncc1)NC(=O)[C@H](CC(=O)O)NC(=O)[C@H](CO)NC(=O)[C@@H](NC(=O)[C@](C)(Cc1ccccc1F)NC(=O)[C@@H](NC(=O)CNC(=O)[C@H](CCC(=O)O)NC(=O)C(C)(C)NC(=O)[C@@H](N)Cc1ccc(O)cc1)[C@@H](C)O)[C@@H](C)O)[C@@H](C)CC)C(=O)N[C@@H](C)C(=O)N[C@@H](CCC(N)=O)C(=O)NC(C)(C)C(=O)N[C@@H](CCCCNC(=O)COCCOCCNC(=O)COCCOCCNC(=O)CC[C@H](NC(=O)CCCCCCCCCOc1ccc(C(=O)O)cc1)C(=O)O)C(=O)N[C@@H](Cc1ccccc1)C(=O)N[C@H](C(=O)N[C@H](CCC(=O)O)C(=O)N[C@@](C)(Cc1ccc(O)cc1)C(=O)N[C@@H](CC(C)C)C(=O)N[C@H](C(=O)N[C@@H](CCCCNC(=O)COCCOCCNC(=O)COCCOCCNC(=O)CC[C@H](NC(=O)CCCCCCCCCOc1ccc(C(=O)O)cc1)C(=O)O)C(=O)NCC(=O)NCC(=O)N1CCC[C@H]1C(=O)N[C@@H](CO)C(=O)N[C@@H](CO)C(=O)NCC(=O)N[C@@H](C)C(=O)N1CCC[C@H]1C(=O)N1CCC[C@H]1C(=O)N1CCC[C@H]1C(=O)N[C@@H](CO)C(N)=O)[C@@H](C)CC)[C@@H](C)CC` [Example 275], the EC50 on hGIPR (hGIPR EC50, nM (SEM, n), 37° C.) was 0.0152 nM; on hGCGR (hGCGR EC50, nM (SEM, n), 0.1% bovine casein and 1.0% human serum albumin, 37° C., geometric mean) it was more than 9950 nM; at hGCGR (hGCGR EC50, nM (SEM, n), cAMP, 37° C., 0.1% bovine casein (no human serum albumin), geometric mean) it was more than 9950 nM; on hGLP-1R (hGLP-1R EC50, nM (SEM, n), 0.1% bovine casein and 1.0% human serum albumin, 37° C.), 33.5 nM. The Emax on hGLP-1R (HEK293, read-out: hGLP-1R Emax, % ± SEM, cAMP, 37° C., 0.1% bovine casein, percent of maximal response to GLP-1(7-36)NH2, arithmetic mean) came out at 110%.
